Data published in patent US8193246B2, “Lipids and lipid assemblies comprising transfection enhancer elements” (Marina Biotech, Inc., priority 2006, dated 2012).

How the values were obtained:
HeLa-Cells [1] = experiment: In vitro transfection with liposomes encapsulating carboxyfluorescein (Example 11); assay type: cell-based; settings: 0.05 mM CF/well, 4 hours, FIG. 17, 18
Protocol: HeLa-Cells were obtained from DSMZ (German Collection of Micro Organism and Cell Cultures) and maintained in DMEM. Media were purchased from Gibco-Invitrogen and supplemented with 10% FCS at 37° C. under 5% CO2. The cells were plated at a density of 4×10^4 cells/ml and cultivated in 100 μl medium. After 16 h the media were replaced with Opti-MEM I (Gibco) containing liposomes (L-46-L-49) with a total amount of 0.05 mM CF/well. Cell culture dishes were incubated for 4 hours at 37° C. under 5% CO2. Transfection efficiency and cellular distribution was determined after 4 hours by fluorescence microscopy with an exposure time of 5 seconds and using the 10/100 fold objective (Axionvert S 100, Carl Zeiss Inc.). Before imaging cells were washed several times (5×) with PBS pH7.4 and analysed directly (incubation time 20 to 30 sec.) in 50 μl PBS pH7.4. As control free CF (0.1 mM) in PBS was added to the cells.

HeLa-Cells [2] = experiment: In vitro transfection with liposomes encapsulating carboxyfluorescein, fluorescence microscopy (Example 5); assay type: cell-based; settings: 0.5 mM CF/well, FIG. 7-11
Protocol: HeLa-Cells were obtained from DSMZ (German Collection of Micro Organism and Cell Cultures) and maintained in DMEM. Media were purchased from Gibco-Invitrogen and supplemented with 10% FCS at 37° C. under 5% CO2. The cells were plated at a density of 2×10^4 cells/ml and cultivated in 100 μl medium. After 16 h the media were replaced with Opti-MEM I (Gibco) containing liposomes (L1-L24) with a total amount of 50 to 200 ng Cy3-labelled oligonucleotides or 0.5 mM CF/well. Cell culture dishes were centrifuged for 1 h at 450 g at 37° C., followed by an incubation of 3 h hours at 37° C. under 5% CO2. The transfection mixture was replaced by the above mentioned medium and cells were incubated for further 24-48 h hours. Transfection efficiency and cellular distribution was determined after 4 or 24 hours by light and fluorescence microscopy using objectives with 10× or 40× magnification (Axionvert S 100, Carl Zeiss Inc.).

## carboxyfluorescein [free carboxyfluorescein]
HeLa-Cells [1]
  fluorescence signal of carboxyfluorescein: no fluorescence signal was observed
HeLa-Cells [2]
  fluorescence signal of carboxyfluorescein in cytosol or nucleus: do not show any fluorescence signals
